Test results reported in patent US11559504B2, “Ceramide nanoliposomes, compositions and methods of using for immunotherapy” (THE PENN STATE RESEARCH FOUNDATION, priority 2017, dated 2023).

Key:
[1] = system: GM-BMMs; assay: M1 cytokine mRNA in GM-BMMs with LipC6, NAC or both, RT-PCR; type: cell-based, C57BL/6 mice; details: 50 μM NAC, 24 hours
Protocol: GM-BMMs were prepared in vitro by stimulating bone marrow derived monocytes from wild type C57BL/6 mice with 50 ng/mL GMCSF for 6 days. GM-BMMs were incubated for 24 hours with 25 μM vehicle, 25 μM LipC6, 50 μM NAC or LipC6 plus NAC. Total RNA was extracted and subjected to RT-PCR to quantitate M1 cytokines including iNOS (B), IL-12 (C), IFN-γ (D) and TNF-α (E). n=3, *=p<0.05 and **=p<0.001 using Student's t-test.
Total RNA extraction and real-time PCR. Total RNAs were extracted using Trizol reagent (Invitrogen, Carlsbad, Calif.) according to the manufacturer's instructions. 2 μg of total RNAs were used for cDNA synthesis with High Capacity cDNA Reverse Transcription Kits (Applied Biosystems, CA). Each PCR was performed in a 20 μl reaction mixture containing SYBR Green I (Roche, Basel, Switzerland). Real-time PCR was performed with CFX96 Real-Time PCR Detection System (Bio-Rad, CA). Reactions were run in triplicate in three independent experiments. Expression data were normalized to the geometric mean of housekeeping gene 18S rRNA to control the variability in expression levels and were analyzed using the 2^ΔΔCT method.
To further study if ROS signaling is required for LipC6-mediated modulation of macrophages, we compared the function of LipC6 and the ROS specific inhibitor N-acetyl-L-cysteine (NAC) in modulating M1 cytokine production in GMCSF-induced macrophages.

[2] = system: G-BMMs and M-BMMs; assay: ROS in bone marrow-derived macrophages in vitro, ROS-Glo H2O2 luminescent assay; type: cell-based, C57BL/6 mice; details: ceramides of carbon-chain lengths 6 to 22, overnight incubation
Protocol: Size-matched TBMs were randomly assigned to one of three groups: vehicle, LipC6, or no injection. Two weeks after injection, splenic leukocytes and TILs were prepared from the spleen and the perfused tumors. The cells were incubated for 45 mins at 37° C., then washed three times with media, with the remaining adherent cells being >90% CD11b positive (macrophages). Intracellular ROS were measured with Glo™ H2O2 assay. Briefly, H2O2 substrate was added to each well followed by addition of ROS-Glo™ detection solution. After incubation for 20 minutes at RT, relative luminescence was measured to assess ROS level in TAMs (A) and splenic macrophages (B). Similarly, bone marrow-derived macrophages (BMMs) were prepared in vitro by stimulating bone marrow cells from wild type C57BL/6 mice with GMCSF (G-BMMs) and MCSF (M-BMMs) for 6 days.
G-BMMs (A) and M-BMMs (B) were prepared in vitro by stimulating bone marrow cells from wild type C57BL/6 mice with GMCSF and MCSF for 6 days. After incubation with the ceramides of different carbon-chain lengths varying from 6 to 22 overnight, the relative ROS level in G-BMMs (C) and M-BMMs (D) was measured with a luminescence assay in accordance with the manufacturer's instruction. n=3; error bars represent±SD. * p<0.05.
Mice. […] Small tumors can be detected by MRI two months after hepatocyte inoculation. […]

Compound: CC(=O)N[C@@H](CS)C(=O)O [NAC, N-acetyl-L-cysteine]
- M1 cytokine production profile compared with LipC6 [1]: similar

Compound: CCCCCCCCCCCCC/C=C/[C@@H](O)[C@H](CO)NC(=O)CCCCCCC [C8-ceramide]
- suppressive effect on ROS production in BMMs [2]: suppressive effect

Compound: CCCCCCCCCCCCC/C=C/[C@@H](O)[C@H](CO)NC(=O)CCCCC [C6-ceramide, N-hexanoyl-D-erythro-sphinogosine]
- suppressive effect on ROS production in BMMs [2]: suppressive effect
